The source of these data is patent publication US8304427B2, “Acylthiourea compound or salt thereof, and use thereof” (Taiho Pharmaceutical Co., Ltd., priority 2008, dated 2012).

Where two headings read alike, the source gives them in different places.

In general, IC50 refers to the midpoint of a concentration-inhibition curve. As usually defined, the MTD is the largest dose that counted as tolerated. A lower MTD goes with poorer tolerability.

The test system of series [1] is HAOSMC (human aortic smooth muscle cell). The experiment in a line: Cell proliferation inhibition test against normal cells HAOSMC. It counts as cell-based. Particulars: Homo sapiens, 72 h, read-out: IC50 HAOSMC. The protocol:
[Worded in the source for another cell line; this cell line is reported under the same test.] (§1) The thus-prepared test compound solution was added to each well of the NUGC4 cell culture plate at 0.1 mL/well, and the plate was incubated in an incubator under 5% CO2 gas atmosphere at 37° C. for 3 days. […] Thereafter, the plate was washed with tap water and dried. Then, aqueous 0.05% Crystal Violet/20% methanol solution (product of Wako Pure Chemical Industries Ltd.) was added to each well at 100 μL/well, and the plate was left to stand at room temperature for 20 minutes, whereby cells were stained. Thereafter, the plate was washed with tap water and dried. To each well, 0.05 M NaH2PO4/ethanol (1/1=v/v) (100 μL) was added, to thereby extract Crystal Violet. The absorbance of the extracted Crystal Violet was measured at 540 nm using a microplate reader, and the absorbance was employed as an index for living cell count. […] Percent inhibition (%)=(C−T)/C×100 • T: Absorbance of well to which a test compound was added • C: Absorbance of well to which no test compound was added

Another series relates to NUGC4 cells. The experiment in a line: Cell-proliferation inhibitory assay against NUGC4 cells (Crystal Violet). Format: cell-based. Particulars: Homo sapiens, NUGC-4, 72 h; NUGC4, cancer, c-Met status (+), 3 days. The protocol: Cell-Proliferation Inhibitory Assay Against NUGC4 Cells (Human Gastric Cancer Cell Strain in Which c-Met is Over-Expressed and Highly Activated), In Vitro Test
NUGC4 cell suspension (in a 10% FBS-containing RPMI 1640 medium (product of Wako Pure Chemical Industries Ltd.) or a FBS-containing DMEM medium (product of Nacalai Tesque, Inc.)) was inoculated to each well of a 96-well (flat-bottom) microplate in an amount of 2×10^3 cells (0.1 mL), and the plate was incubated in an incubator under 5% CO2 gas atmosphere at 37° C. for one day. Each of the compounds of the present invention and comparative compound 1 was dissolved in dimethyl sulfoxide to a concentration of 30 mM. The solution was diluted with 10% FBS-containing RPMI 1640 or DMEM medium, to a final test compound concentration of 60, 20, 6, 2, 0.6, or 0.2 μM. The thus-prepared test compound solution was added to each well of the NUGC4 cell culture plate at 0.1 mL/well, and the plate was incubated in an incubator under 5% CO2 gas atmosphere at 37° C. for 3 days. After culturing, 25% aqueous glutaraldehyde solution (product of Nacalai Tesque, Inc.) was added to each well at 20 μL, and the plate was left to stand at room temperature for 20 minutes, whereby cells were fixed. Thereafter, the plate was washed with tap water and dried. Then, aqueous 0.05% Crystal Violet/20% methanol solution (product of Wako Pure Chemical Industries Ltd.) was added to each well at 100 μL/well, and the plate was left to stand at room temperature for 20 minutes, whereby cells were stained. Thereafter, the plate was washed with tap water and dried. To each well, 0.05 M NaH2PO4/ethanol (1/1=v/v) (100 μL) was added, to thereby extract Crystal Violet. The absorbance of the extracted Crystal Violet was measured at 540 nm using a microplate reader, and the absorbance was employed as an index for living cell count. Percent inhibition was calculated by the following equation, and the 50% inhibition test compound concentration (IC50 (μM)) was calculated. Percent inhibition (%)=(C−T)/C×100 • T: Absorbance of well to which a test compound was added • C: Absorbance of well to which no test compound was added

In series [2] the test system is HMEC (human skin microvascular endothelial cell). As to the kind of experiment: Cell proliferation inhibition test against normal cells HMEC. It counts as cell-based. The note with it: Homo sapiens, HMEC, 72 h, read-out: IC50 HMEC. The protocol: [Worded in the source for another cell line; this cell line is reported under the same test.] as §1
Series [3] is described as follows: Dose determination study (body weight change, maximum tolerated dose). It counts as in vivo. The note with it: nude mice, peroral. The protocol: […]. The maximum tolerated dose was calculated based on the change in body weight of the mice.
During the administration period, percent body weight change of mice (BWC %) was calculated. […] Thus, the half value of the toxicity expression dose was decided as a maximum tolerated dose.
BWC of mice was calculated by the following equation, and the change in mean BWC of each group during the administration period is shown in FIG. 1. BWC(%)=([(body weight of mouse on the day of weight measurement)−(body weight of mouse at grouping)]/(body weight of mouse at grouping))×100

The subject of another series is HCT-116. As to the kind of experiment: Cell proliferation inhibition test against c-Met low expressing tumor cells (HCT-116). It counts as cell-based. Particulars: Homo sapiens.

Take `COc1cc2nccc(Oc3ccc(NC(=S)NC(=O)Cc4ccccc4)cc3F)c2cc1OC` [Comp. Ex. 1, reference compound]: the IC50 in series [1] is 24 µM; in the series on NUGC4 cells, 200 nM; in series [2], 15 µM; in the series with HCT-116 (HCT-116, 72 h, read-out: IC50 HCT-116), 17 µM; in the series on HCT-116 (HCT-116, read-out: IC50 to c-Met low expressing and normal cell strains), 15 to 24 µM. Besides, the MTD at 14 days in series [3] (mouse, in vivo, oral, half value of the toxicity expression dose) was determined as 100 mg/kg. The compound further came in with a toxicity expression dose in series [3] (14 days, dose with ≧10% reduction in mean BWC) of 200 mg/kg. For the same compound, the body weight change entry in series [3] (once a day, 14 days, 100 mg/kg) is reported as “no decrease in body weight was observed”. Also, the “decrease in BWC” value in series [3] (once a day, 14 days, 200 mg/kg) is over 10%.
